A short description of the data set: Absorption of the solution of coated or uncoated riboflavin in water (coloration/release). The note with it: amount containing 10 mg riboflavin dissolved in 1000 ml water for 15 min; measured at 545 nm, spectrophotometer. Type of data set: physicochemical. As for the experimental part:
80 g granulated Riboflavin was successively coated with 9% Na-alginate, 1% Ca-Chloride and 25% shellac using a WFP-mini fluid bed processor (DMR) in Wurster configuration. 89 g coated product with particle size between 250 and 1000 μm was obtained. Coating material was 35% of the particle mass, riboflavin content 50%. 20 mg of coated powder (containing 10 mg of Riboflavin) was dissolved in 1000 ml water for 15 min. Absorption of the solution was measured at 545 nm using a spectrophotometer (Genesys 20, thermo Scientific). Absorption of the solution was 0.065.
10 mg of riboflavin powder was dissolved in 1000 ml water for 15 min. Absorption of the solution was measured at 545 nm using a spectrophotometer (Genesys 20, thermo Scientific). Absorption of the solution was 0.386.
80 g granulated Riboflavin was coated with 60 g Eudragit FS30D and 10 g PIasACRYL T20 using a WFP-mini fluid bed processor (DMR) in Wurster configuration. 71 g coated product with particle size between 250 and 1000 μm was obtained. Coating material was ca. 20% of the particle mass, riboflavin content was 60%. 16.6 mg of coated powder (containing 10 mg of Riboflavin) was dissolved in 1000 ml water for 15 min. Absorption of the solution was measured at 545 nm using a spectrophotometer (Genesys 20, thermo Scientific). Absorption of the solution was 0.087.

Take `Cc1cc2nc3c(=O)[nH]c(=O)nc-3n(C[C@H](O)[C@H](O)[C@H](O)CO)c2cc1C` [Comparison Example 2, riboflavin]: the “Absorption of the solution” value was determined as 0.386.
